Experimental data: patent US5716971A, “Pyridine derivatives, their production and use” (Takeda Chemical Industries, Ltd., priority 1993, dated 1998)
Read-outs that look alike come from different tables or passages of the source.

Legend:
anesthetized dogs = assay: Action of increasing coronary blood flow in anesthetized dogs (administration into coronary artery); assay type: in vivo, dog; conditions: injected into coronary artery, anesthetized Beagle dogs
Experimental: Action of increasing coronary blood flow in anesthetized dogs (Administration into coronary artery) Method: Beagle dogs (10 to 12 kg body weight) were anesthetized with pentobarbital and subjected to thoractomy under artificial respiration. A by-pass fitted with an electromagnetic flowmeter (Nippon Koden) was prepared between the left coronary artery and left carotid artery,and the volume of coronary blood flow was measured. […]
Maximal change rate against the value measured before the administration (% of basal flow) and the duration period [shown in terms of the time (T1/2) in which the activity is reduced to half] are shown in Table 67. As a result, it is apparent that the compounds of this invention show action of increasing coronary blood flow.

[1] = system: Spontaneously hypertensive rats; assay: Hypotensive activity in rats (Tail Cuff Method), oral; assay type: in vivo; conditions: Rattus norvegicus, SHR
Experimental: Hypotensive activity in rats (Tail Cuff Method)
Spontaneously hypertensive rats (SHR, male, 20 to 23 week old) were warmed up to 36° C. The blood pressure at the tail aorta was measured by the tail cuff method. The blood pressure was measured three times, i.e. before oral administration of the test compound, two hours after the administration and five hours after the administration. The test compound was orally administered in the state of a suspension in gum arabic.
Maximal, hypotensive effect against the blood pressure before the administration is shown as % pre. in Table 66. As a result, it is apparent that the compounds of this invention show hypotensive activity.

specimen of rat aorta [2] = assay: Vasorelaxation activity in a specimen of rat aorta: contraction caused by TEA and BaCl2; conditions: TEA (30-45 mM) and BaCl2 (0.3 mM) contraction, read-out: constriction inhibitory ratio
Experimental: Vasorelaxation activity in a specimen of rat aorta Effects on contraction caused by tetraethylammonium chloride (TEA) and barium chloride (BaCl2)
(§1) Male Wister rats (10 to 13 week old were employed for the experiment. After dehematization, the aorta was excised and a ring specimen (5 mm length) was prepared. The specimen was suspended in a bath filled with oxygenated (95% O2 -5%CO2) Krebs solution (36° C.). The ring specimen was fixed at one end and the other end was connected to a transducer (Nippon Koden) for recording tension to determine the tension. After a stabilization period of one hour, TEA (30-45 mM) and BaCl2 (0.3 mM) were added to the bath to cause vasoconstriction. After the constriction had reached a steady state (after about 15 minutes), a test compound was added to the bath and its relaxation activity was measured.

specimen of rat aorta [3] = assay: Vasorelaxation activity in a specimen of rat aorta: contraction caused by KCl; conditions: read-out: constriction inhibitory ratio
Experimental: as §1
Vasorelaxation activity in a specimen of rat aorta Effects on contraction caused by potassium chloride (KCl)
The same experiment was conducted as in Experiment 1, excepting the use of KCl ([…]) instead of TEA and BaCl2

[4] = after 2 hours, read-out: Maximal hypotensive effect against blood pressure before administration (% pre.), after 2 hours
[5] = after 5 hours, read-out: Maximal hypotensive effect against blood pressure before administration (% pre.), after 5 hours

Row | Structure (SMILES) | duration (T1/2): time in which the activity is reduced to half (anesthetized dogs; 30 ug/day) | inhibition at 1 µM (specimen of rat aorta [2]) | inhibition at 1 µM (specimen of rat aorta [3]) | inhibition at 3 µM (specimen of rat aorta [3]) | inhibition at 3 µM (specimen of rat aorta [2]) | also measured
1 | CC(C)(C)O/N=C(/c1cc(F)c(Cl)cc1O)c1c(O)ccc[n+]1[O-] [Compound 56, (Z)-2-(4-chloro-5-fluoro-2-hydroxybenzoyl)-3-hydroxypyridine N-oxide O-t-butyloxime] | 27.3 min | 100% |  |  |  | inhibition in vivo at 10 mg/kg [1, 4]: 51%; inhibition in vivo at 10 mg/kg [1, 5]: 42%
2 | CC(C)(C)O/N=C(/c1cc(Cl)c(Cl)cc1O)c1cccc[n+]1[O-] [Compound 95, (Z)-2-(4,5-dichloro-2-hydroxybenzoyl)pyridine N-oxide O-t-butyloxime] | 4.0 min | 59% | 3% | 12% | 71% | 
3 | CC(C)(C)O/N=C(/c1cc(Cl)c(C#N)cc1O)c1c(O)ccc[n+]1[O-] [Compound 175, (Z)-2-(5-chloro-4-cyano-2-hydroxybenzoyl)-3-hydroxy pyridine N-oxide O-t-butyloxime] |  | 100% | 4% |  |  | duration (T1/2): time in which the activity is reduced to half (anesthetized dogs; 10 μg/dog administration): 34.3 min
4 | CC(C)(C)O/N=C(/c1cc(Br)c(C#N)cc1O)c1c(O)ccc[n+]1[O-] [Compound 129, (Z)-2-(5-bromo-4-cyano-2-hydroxybenzoyl)-3-hydroxy pyridine N-oxide O-t-butyloxime] |  | 100% | 18% |  |  | duration (T1/2): time in which the activity is reduced to half (anesthetized dogs; 10 μg/dog administration): 42.9 min
5 | CC(C)(C)O/N=C(/c1cc(C#N)c(Cl)cc1O)c1ncccc1O [Compound 130, (Z)-2-(4-chloro-5-cyano-2-hydroxybenzoyl)-3-hydroxy pyridine O-t-butyloxime] | 4.4 min | 100% |  |  |  | 
6 | CC(C)(C)O/N=C(/c1cc(Cl)c(F)cc1O)c1c(O)ccc[n+]1[O-] [Compound 58, (Z)-2-(5-chloro-4-fluoro-2-hydroxybenzoyl)-3-hydroxypyridine N-oxide O-t-butyloxime] | 47.7 min | 84% | 0% | 0% | 94% | inhibition in vivo at 1 mg/kg [1, 4]: 35%; inhibition in vivo at 1 mg/kg [1, 5]: 19%; inhibition in vivo at 10 mg/kg [1, 4]: 55%; inhibition in vivo at 10 mg/kg [1, 5]: 45%
7 | CC(C)(C)O/N=C(/c1cc(Br)c(F)cc1O)c1c(OC(=O)C(C)(C)C)ccc[n+]1[O-] [Compound 171, (Z)-2-(5-bromo-4-fluoro-2-hydroxybenzoyl)-3-pivaloyloxypyridine N-oxide O-t-butyloxime] |  |  |  |  |  | duration (T1/2): time in which the activity is reduced to half (anesthetized dogs; 10 μg/dog administration): 23.4 min
8 | Cc1cc(O)c(/C(=N/OC(C)(C)C)c2c(O)ccc[n+]2[O-])cc1Br [Compound 67, (Z)-2-(5-bromo-2-hydroxy-4-methylbenzoyl)-3-hydroxypyridine N-oxide O-t-butyloxime] | 8.9 min | 32% | 0% | 0% | 89% | inhibition at 10 µM (specimen of rat aorta [3]): 0%; inhibition in vivo at 10 mg/kg [1, 4]: 28%; inhibition in vivo at 10 mg/kg [1, 5]: 35%; inhibition at 10 µM (specimen of rat aorta [2]): 100%
9 | CC(C)(C)O/N=C(/c1cc(C#N)c(Cl)cc1O)c1c(O)ccc[n+]1[O-] [Compound 132, (Z)-2-(4-chloro-5-cyano-2-hydroxybenzoyl)-3-hydroxy pyridine N-oxide O-t-butyloxime] | 71.8 min | 100% |  |  |  | 
10 | CC(C)(C)O/N=C(/c1cc(Br)ccc1O)c1ncccc1O [Compound 6, (Z)-2-(5-bromo-2-hydroxybenzoyl)-3-hydroxypyridine O-t-butyloxime] | 1.5 min | 62% | 5% | 17% | 82% | 
11 | Cc1cc(O)c(/C(=N/OC(C)(C)C)c2ncccc2O)cc1Br [Compound 61, (Z)-2-(5-bromo-2-hydroxy-4-methylbenzoyl)-3-hydroxypyridine O-t-butyloxime] | 2.0 min | 54% | 4% | 7% | 100% | 
12 | CC(C)(C)O/N=C(/c1cc(Br)c(C#N)cc1O)c1ncccc1O [Compound 128, (Z)-2-(5-bromo-4-cyano-2-hydroxybenzoyl)-3-hydroxy pyridine O-t-butyloxime] | 6.2 min | 100% |  |  |  | 
13 | CC(C)(C)ON=C(c1cc(Cl)ccc1O)c1ncccc1O [Compound 14] | 1.6 min | 71% | 2% | 11% | 90% | 
14 | CC(C)(C)O/N=C(/c1cc(F)c(Cl)cc1O)c1cccc[n+]1[O-] [Compound 103, (Z)-2-(4-chloro-5-fluoro-2-hydroxybenzoyl)pyridine N-oxide O-t-butyloxime] | 3.0 min |  |  |  | 29% | inhibition at 10 µM (specimen of rat aorta [2]): 47%
15 | CC(C)(C)O/N=C(/c1cc(Cl)c(C#N)cc1O)c1ncccc1O [Compound 174, (Z)-2-(5-chloro-4-cyano-2-hydroxybenzoyl)-3-hydroxy pyridine O-t-butyloxime] |  | 100% |  |  |  | duration (T1/2): time in which the activity is reduced to half (anesthetized dogs; 10 μg/dog administration): 4.4 min
16 | Cc1ccc(O)c(/C(=N/OC(C)(C)C)c2ncccc2O)c1 [Compound 23, (Z)-2-(2-hydroxy-5-methylbenzoyl)-3-hydroxypyridine O-t-butyloxime] | 1.2 min |  |  |  |  | 
17 | CC(C)(C)O/N=C(/c1cc(F)c(F)cc1O)c1cccc[n+]1[O-] [Compound 100, (Z)-2-(4,5-difluoro-2-hydroxybenzoyl)pyridine N-oxide O-t-butyloxime] | 3.3 min | 52% | 4% | 11% | 100% | 
18 | COc1cc(O)c(/C(=N/OC(C)(C)C)c2ncccc2O)cc1Br [Compound 43] | 1.7 min |  |  | 0% | 63% | inhibition at 10 µM (specimen of rat aorta [3]): 5%; inhibition at 10 µM (specimen of rat aorta [2]): 75%
19 | CC(C)(C)O/N=C(/c1cc([N+](=O)[O-])ccc1O)c1ncccc1O [Compound 27, (Z)-2-(2-hydroxy-5-nitrobenzoyl)-3-hydroxypyridine O-t-butyloxime] | 2.1 min |  |  |  |  | 
20 | CC(C)(C)O/N=C(/c1cc(F)c(F)cc1O)c1c(O)ccc[n+]1[O-] [Compound 59, (Z)-2-(4,5-difluoro-2-hydroxybenzoyl)-3-hydroxypyridine N-oxide O-t-butyloxime] | 15.1 min | 6% |  |  | 100% | inhibition in vivo at 1 mg/kg [1, 4]: 22%; inhibition in vivo at 1 mg/kg [1, 5]: 10%; inhibition in vivo at 10 mg/kg [1, 4]: 45%; inhibition in vivo at 10 mg/kg [1, 5]: 54%
21 | CC(C)(C)O/N=C(/c1cc(F)c(C#N)cc1O)c1c(O)ccc[n+]1[O-] [Compound 177, (Z)-2-(4-cyano-5-fluoro-2-hydroxybenzoyl)-3-hydroxy pyridine N-oxide O-t-butyloxime] |  | 50% | 0% | 0% | 100% | duration (T1/2): time in which the activity is reduced to half (anesthetized dogs; 10 μg/dog administration): 9.8 min
22 | CC(C)(C)O/N=C(/c1cc(F)c(C#N)cc1O)c1ncccc1O [Compound 176, (Z)-2-(4-cyano-5-fluoro-2-hydroxybenzoyl)-3-hydroxyoyridine O-t-butyloxime] |  | 100% |  |  |  | duration (T1/2): time in which the activity is reduced to half (anesthetized dogs; 10 μg/dog administration): 1.8 min
